Test results: US11000033B2, “Ketone or oxime compound, and herbicide” (NISSAN CHEMICAL CORPORATION, priority 2014, dated 2021)

Experiments:
Type in all cases: in vivo
[1] = system: Echinochloa crus-galli var. crus-galli; assay: Test Example 3: herbicidal effect by foliage application, Wagner pot (symbol H); conditions: application herbicide amount 320 g/ha
How it was run: (§1)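 Foliar spray of water-diluted emulsion formulation at a predetermined herbicide amount onto 14-day-old plants in flooded alluvial soil (water depth 0.1–0.5 cm), greenhouse 25–30 °C; rice sown alongside. Scored 3 wk post-application on set criteria.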

Leptochloa chinensis = assay: Test Example 3: herbicidal effect by foliage application, Wagner pot (symbol D); conditions: application herbicide amount 320 g/ha
How it was run: as §1

Cyperus difformis = assay: Test Example 3: herbicidal effect by foliage application, Wagner pot (symbol E); conditions: application herbicide amount 320 g/ha
How it was run: as §1

[2] = system: directly sowed rice plant; assay: Test Example 3: effect on crop by foliage application, Wagner pot (symbol b); conditions: application herbicide amount 320 g/ha
How it was run: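 Wagner pot (1/10000 are), alluvial soil, submerged 0.1–0.5 cm; sown E. crus-galli var. crus-galli, L. chinensis, C. difformis, rice; greenhouse 25–30 °C.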

Digitaria ciliaris [3] = assay: Test Example 4: herbicidal effect by soil treatment (symbol F); conditions: application herbicide amount 320 g/ha
Text: (§2) Herbicidal Effect Test by Soil Treatment
(§3) Sterilized diluvial soil was placed in a plastic box having a length of 21 cm, a width of 13 cm, and a depth of 7 cm. Each of the seeds of Digitaria ciliaris, Setaria viridis, Echinochloa crus-galli var. crus-galli, Avena fatua, Alopecurus myosuroides, Lolium multiflorum Lam., Apera spica-venti, Abutilon theophrasti, Amaranthus retroflexus, Chenopodium album, Stellaria media, Galium spurium, Veronica persica, corn, soybean, rice, wheat, beet, and rapeseed was sowed in a spot-like manner and was covered with the soil of a thickness of about 1.5 cm. Subsequently, the emulsion agent of the compound present invention prepared in accordance with Formulation Example 2 was diluted with water so as to be a predetermined herbicide amount and the diluted emulsion agent was uniformly applied to the surface of the soil with a small-size spray. The plastic box was placed in a greenhouse of 25° C. to 30° C. to grow plant. 3 weeks later from the herbicide application, the effect to each plant was investigated in accordance with the criteria of Test Example 1.

Setaria viridis [4] = assay: Test Example 4: herbicidal effect by soil treatment (symbol G); conditions: application herbicide amount 320 g/ha
Text: as §2, §3

[5] = system: Echinochloa crus-galli var. crus-galli; assay: Test Example 4: herbicidal effect by soil treatment (symbol H); conditions: application herbicide amount 320 g/ha
Text: as §2, §3

Avena fatua [6] = assay: Test Example 4: herbicidal effect by soil treatment (symbol I); conditions: application herbicide amount 320 g/ha
Text: as §2, §3

Alopecurus myosuroides [7] = assay: Test Example 4: herbicidal effect by soil treatment (symbol J); conditions: application herbicide amount 320 g/ha
Text: as §2, §3

Lolium multiflorum Lam. [8] = assay: Test Example 4: herbicidal effect by soil treatment (symbol K); conditions: application herbicide amount 320 g/ha
Text: as §2, §3

Apera spica-venti [9] = assay: Test Example 4: herbicidal effect by soil treatment (symbol L); conditions: application herbicide amount 320 g/ha
Text: as §2, §3

Abutilon theophrasti [10] = assay: Test Example 4: herbicidal effect by soil treatment (symbol M); conditions: application herbicide amount 320 g/ha
Text: as §2, §3

Amaranthus retroflexus [11] = assay: Test Example 4: herbicidal effect by soil treatment (symbol N); conditions: application herbicide amount 320 g/ha
Text: as §2, §3

Stellaria media [12] = assay: Test Example 4: herbicidal effect by soil treatment (symbol P); conditions: application herbicide amount 320 g/ha
Text: as §2, §3

Veronica persica [13] = assay: Test Example 4: herbicidal effect by soil treatment (symbol R); conditions: application herbicide amount 320 g/ha
Text: as §2, §3

corn [14] = assay: Test Example 4: effect on crop by soil treatment (symbol c); conditions: application herbicide amount 320 g/ha
Text: as §2
(§4) Sterilized diluvial soil was placed in a plastic box having a length of 21 cm, a width of 13 cm, and a depth of 7 cm. Each of the seeds of Digitaria ciliaris, Setaria viridis, Echinochloa crus-galli var. crus-galli, Avena fatua, Alopecurus myosuroides, Lolium multiflorum Lam., Apera spica-venti, Abutilon theophrasti, Amaranthus retroflexus, Chenopodium album, Stellaria media, Galium spurium, Veronica persica, corn, soybean, rice, wheat, beet, and rapeseed was sowed in a spot-like manner and was covered with the soil of a thickness of about 1.5 cm. […] The plastic box was placed in a greenhouse of 25° C. to 30° C. to grow plant.

soybean [15] = assay: Test Example 4: effect on crop by soil treatment (symbol d); conditions: application herbicide amount 320 g/ha
Text: as §2, §4

rice = assay: Test Example 4: effect on crop by soil treatment (symbol b); conditions: application herbicide amount 320 g/ha
Text: as §2, §4

wheat [16] = assay: Test Example 4: effect on crop by soil treatment (symbol e); conditions: application herbicide amount 320 g/ha
Text: as §2, §4

beet [17] = assay: Test Example 4: effect on crop by soil treatment (symbol f); conditions: application herbicide amount 320 g/ha
Text: as §2, §4

rapeseed [18] = assay: Test Example 4: effect on crop by soil treatment (symbol g); conditions: application herbicide amount 320 g/ha
Text: as §2, §4

Digitaria ciliaris [19] = assay: Test Example 5: herbicidal effect by foliage application, plastic box (symbol F); conditions: 320 g/ha, 3 weeks after application
How it was run: (§5)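 Visual herbicidal score, taken three weeks post-application, of seedlings sprayed on the foliage with water-diluted emulsion at a predetermined amount; plants were 14 days old, greenhouse-raised at 25° C. to 30° C.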

Setaria viridis [20] = assay: Test Example 5: herbicidal effect by foliage application, plastic box (symbol G); conditions: 320 g/ha, 3 weeks after application
How it was run: as §5

[21] = system: Echinochloa crus-galli var. crus-galli; assay: Test Example 5: herbicidal effect by foliage application, plastic box (symbol H); conditions: 320 g/ha, 3 weeks after application
How it was run: as §5

Avena fatua [22] = assay: Test Example 5: herbicidal effect by foliage application, plastic box (symbol I); conditions: 320 g/ha, 3 weeks after application
How it was run: as §5

Alopecurus myosuroides [23] = assay: Test Example 5: herbicidal effect by foliage application, plastic box (symbol J); conditions: 320 g/ha, 3 weeks after application
How it was run: as §5

Lolium multiflorum Lam. [24] = assay: Test Example 5: herbicidal effect by foliage application, plastic box (symbol K); conditions: 320 g/ha, 3 weeks after application
How it was run: as §5

Apera spica-venti [25] = assay: Test Example 5: herbicidal effect by foliage application, plastic box (symbol L); conditions: 320 g/ha, 3 weeks after application
How it was run: as §5

Abutilon theophrasti [26] = assay: Test Example 5: herbicidal effect by foliage application, plastic box (symbol M); conditions: 320 g/ha, 3 weeks after application
How it was run: as §5

Amaranthus retroflexus [27] = assay: Test Example 5: herbicidal effect by foliage application, plastic box (symbol N); conditions: 320 g/ha, 3 weeks after application
How it was run: as §5

Stellaria media [28] = assay: Test Example 5: herbicidal effect by foliage application, plastic box (symbol P); conditions: 320 g/ha, 3 weeks after application
How it was run: as §5

Galium spurium = assay: Test Example 5: herbicidal effect by foliage application, plastic box (symbol Q); conditions: 320 g/ha, 3 weeks after application
How it was run: as §5

Veronica persica [29] = assay: Test Example 5: herbicidal effect by foliage application, plastic box (symbol R); conditions: 320 g/ha, 3 weeks after application
How it was run: as §5

corn [30] = assay: Test Example 5: effect on crop by foliage application, plastic box (symbol c); conditions: 320 g/ha, 3 weeks after application
How it was run: (§6)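 Sterilized diluvial soil, plastic box (21 × 13 × 7 cm); spot sowing, ~1.5 cm soil cover; greenhouse 25–30° C.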

soybean [31] = assay: Test Example 5: effect on crop by foliage application, plastic box (symbol d); conditions: 320 g/ha, 3 weeks after application
How it was run: as §6

rice plant = assay: Test Example 5: effect on crop by foliage application, plastic box (symbol b); conditions: 320 g/ha, 3 weeks after application
How it was run: as §6

wheat [32] = assay: Test Example 5: effect on crop by foliage application, plastic box (symbol e); conditions: 320 g/ha, 3 weeks after application
How it was run: as §6

beet [33] = assay: Test Example 5: effect on crop by foliage application, plastic box (symbol f); conditions: 320 g/ha, 3 weeks after application
How it was run: as §6

rapeseed [34] = assay: Test Example 5: effect on crop by foliage application, plastic box (symbol g); conditions: 320 g/ha, 3 weeks after application
How it was run: as §6

SMILES: CCOC(=O)C(C(=O)C1CCCC1)C1CC(O)=C(c2c(C)cc(C)cc2C)C1=O (stereo not drawn) [2-027]
- herbicidal effect on H (Echinochloa crus-galli var. crus-galli), grade 0-5 [1]: 3 (Herbicidal ratio of 40% or higher and lower than 70%)
- herbicidal effect on D (Leptochloa chinensis), grade 0-5 (Leptochloa chinensis): 0 (Herbicidal ratio of 5% or lower (almost no effect))
- herbicidal effect on E, grade 0-5 (Cyperus difformis): 0 (Herbicidal ratio of 5% or lower (almost no effect))
- effect on crop b (directly sowed rice plant), grade 0-5 [2]: 5 (Herbicidal ratio of 90% or more (almost completely withered))
- F: Digitaria ciliaris, herbicidal effect grade (Digitaria ciliaris [3]): 3 (Herbicidal ratio of 40% or higher and lower than 70%)
- G: Setaria viridis, herbicidal effect grade (Setaria viridis [4]): 5 (Herbicidal ratio of 90% or more (almost completely withered))
- H: Echinochloa crus-galli var. crus-galli, herbicidal effect grade [5]: 3 (Herbicidal ratio of 40% or higher and lower than 70%)
- I: Avena fatua, herbicidal effect grade (Avena fatua [6]): 0 (Herbicidal ratio of 5% or lower (almost no effect))
- J: Alopecurus myosuroides, herbicidal effect grade (Alopecurus myosuroides [7]): 1 (Herbicidal ratio of 5% or higher and lower than 20%)
- K: Lolium multiflorum Lam., herbicidal effect grade (Lolium multiflorum Lam. [8]): 2 (Herbicidal ratio of 20% or higher and lower than 40%)
- L: Apera spica-venti, herbicidal effect grade (Apera spica-venti [9]): 0 (Herbicidal ratio of 5% or lower (almost no effect))
- M: Abutilon theophrasti, herbicidal effect grade (Abutilon theophrasti [10]): 0 (Herbicidal ratio of 5% or lower (almost no effect))
- N: Amaranthus retroflexus, herbicidal effect grade (Amaranthus retroflexus [11]): 0 (Herbicidal ratio of 5% or lower (almost no effect))
- P: Stellaria media, herbicidal effect grade (Stellaria media [12]): 0 (Herbicidal ratio of 5% or lower (almost no effect))
- R: Veronica persica, herbicidal effect grade (Veronica persica [13]): 0 (Herbicidal ratio of 5% or lower (almost no effect))
- c: corn, effect on crop grade (corn [14]): 1 (Herbicidal ratio of 5% or higher and lower than 20%)
- d: soybean, effect on crop grade (soybean [15]): 0 (Herbicidal ratio of 5% or lower (almost no effect))
- b: directly sowed rice plant, effect on crop grade (rice): 4 (Herbicidal ratio of 70% or higher and lower than 90%)
- e: wheat, effect on crop grade (wheat [16]): 0 (Herbicidal ratio of 5% or lower (almost no effect))
- f: beet, effect on crop grade (beet [17]): 0 (Herbicidal ratio of 5% or lower (almost no effect))
- g: rapeseed, effect on crop grade (rapeseed [18]): 0 (Herbicidal ratio of 5% or lower (almost no effect))
- F: Digitaria ciliaris, herbicidal effect grade (Digitaria ciliaris [19]): 0 (Herbicidal ratio of 5% or lower (almost no effect))
- G: Setaria viridis, herbicidal effect grade (Setaria viridis [20]): 5 (Herbicidal ratio of 90% or more (almost completely withered))
- H: Echinochloa crus-galli var. crus-galli, herbicidal effect grade [21]: 3 (Herbicidal ratio of 40% or higher and lower than 70%)
- I: Avena fatua, herbicidal effect grade (Avena fatua [22]): 1 (Herbicidal ratio of 5% or higher and lower than 20%)
- J: Alopecurus myosuroides, herbicidal effect grade (Alopecurus myosuroides [23]): 2 (Herbicidal ratio of 20% or higher and lower than 40%)
- K: Lolium multiflorum Lam., herbicidal effect grade (Lolium multiflorum Lam. [24]): 4 (Herbicidal ratio of 70% or higher and lower than 90%)
- L: Apera spica-venti, herbicidal effect grade (Apera spica-venti [25]): 0 (Herbicidal ratio of 5% or lower (almost no effect))
- M: Abutilon theophrasti, herbicidal effect grade (Abutilon theophrasti [26]): 0 (Herbicidal ratio of 5% or lower (almost no effect))
- N: Amaranthus retroflexus, herbicidal effect grade (Amaranthus retroflexus [27]): 0 (Herbicidal ratio of 5% or lower (almost no effect))
- P: Stellaria media, herbicidal effect grade (Stellaria media [28]): 0 (Herbicidal ratio of 5% or lower (almost no effect))
- Q: Galium spurium, herbicidal effect grade (Galium spurium): 0 (Herbicidal ratio of 5% or lower (almost no effect))
- R: Veronica persica, herbicidal effect grade (Veronica persica [29]): 0 (Herbicidal ratio of 5% or lower (almost no effect))
- c: corn, effect on crop grade (corn [30]): 1 (Herbicidal ratio of 5% or higher and lower than 20%)
- d: soybean, effect on crop grade (soybean [31]): 0 (Herbicidal ratio of 5% or lower (almost no effect))
- b: directly sowed rice plant, effect on crop grade (rice plant): 4 (Herbicidal ratio of 70% or higher and lower than 90%)
- e: wheat, effect on crop grade (wheat [32]): 0 (Herbicidal ratio of 5% or lower (almost no effect))
- f: beet, effect on crop grade (beet [33]): 0 (Herbicidal ratio of 5% or lower (almost no effect))
- g: rapeseed, effect on crop grade (rapeseed [34]): 1 (Herbicidal ratio of 5% or higher and lower than 20%)
